Results as given in ChEMBL document CHEMBL5214969, “Synthesis and evaluation of 2,9-disubstituted-1,10-phenanthroline derivatives as G-quadruplex binders” (Bioorg Med Chem, 2022).
Values belong to the molecule of their own block, whether it stands above or below them. Active and inactive are the calls of the source. No cut-off for these calls is given here.

Key:
Quadruplex DNA [1] = experiment: Binding affinity to human G-quadruplex telomeric DNA F21T (5'-duplex FAM-GGGTTAGGGTTAGGGTTAGGG-TAM-3') assessed as stabilization by measuring change in melting temperature at 5 uM by FRET melting assay; assay type: nucleic-acid assay
Quadruplex DNA [2] = experiment: Binding affinity to human G-quadruplex telomeric DNA F25CebT (5'-duplex FAM-AGGGTGGGTGTAAGTGTGGGTGGGT-TAM-3') assessed as stabilization by measuring change in melting temperature at 5 uM by FRET melting assay; assay type: nucleic-acid assay
A549 = experiment: Antiproliferative activity against human A549 cells assessed as cell viability at 10 uM after 48 hrs by MTT assay; assay type: functional; details: for viability at 10 µM: read-out: Activity
NCI-H1299 = experiment: Antiproliferative activity against human NCI-H1299 cells assessed as cell viability at 10 uM after 48 hrs by MTT assay; assay type: functional
Quadruplex DNA [3] = experiment: Binding affinity to human G-quadruplex telomeric DNA F21CTAT (5'-duplex FAM-GGGCTAGGGCTAGGGCTAGGG-TAM-3') assessed as stabilization by measuring change in melting temperature at 5 uM by FRET melting assay; assay type: nucleic-acid assay
Quadruplex DNA [4] = experiment: Binding affinity to G-quadruplex telomeric DNA FdxT (5'-duplex FAM-TATAGCTAT-PEG-TATAGCTATA-TAM-3') assessed as stabilization by measuring change in melting temperature at 5 uM by FRET melting assay; assay type: nucleic-acid assay
NHDF = experiment: (§1) Cytotoxicity against human NHDF cells assessed as cell viability at 10 uM after 48 hrs by MTT assay; assay type: toxicity, cell-based; details: nhdf, 48 h, 10 µM
Quadruplex DNA [5] = experiment: Binding affinity to G-quadruplex telomeric DNA 22AG (5'-duplex AGGGTTAGGGTTAGGGTTAGGG-3') (unknown origin) assessed as stabilization by measuring change in melting temperature at 0.5 M by circular dichroism (CD) spectroscopy; assay type: nucleic-acid assay
Quadruplex DNA [6] = experiment: Binding affinity to G-quadruplex telomeric DNA 22AG (5'-duplex AGGGTTAGGGTTAGGGTTAGGG-3') (unknown origin) assessed as stabilization by measuring change in melting temperature at 1 M by circular dichroism (CD) spectroscopy; assay type: nucleic-acid assay
Quadruplex DNA [7] = experiment: Binding affinity to G-quadruplex telomeric DNA 22AG (5'-duplex AGGGTTAGGGTTAGGGTTAGGG-3') (unknown origin) assessed as stabilization by measuring change in melting temperature at 3 M by circular dichroism (CD) spectroscopy; assay type: nucleic-acid assay
Quadruplex DNA [8] = experiment: Binding affinity to G-quadruplex telomeric DNA 22AG (5'-duplex AGGGTTAGGGTTAGGGTTAGGG-3') (unknown origin) assessed as stabilization by measuring change in melting temperature at 5 M by circular dichroism (CD) spectroscopy; assay type: nucleic-acid assay
Quadruplex DNA [9] = experiment: Binding affinity to G-quadruplex telomeric DNA 22CTA (5'-duplex AGGGCTAGGGCTAGGGCTAGGG-3') (unknown origin) assessed as stabilization by measuring change in melting temperature at 0.5 M by circular dichroism (CD) spectroscopy; assay type: nucleic-acid assay
Quadruplex DNA [10] = experiment: Binding affinity to G-quadruplex telomeric DNA 22CTA (5'-duplex AGGGCTAGGGCTAGGGCTAGGG-3') (unknown origin) assessed as stabilization by measuring change in melting temperature at 1 M by circular dichroism (CD) spectroscopy; assay type: nucleic-acid assay
Quadruplex DNA [11] = experiment: Binding affinity to G-quadruplex telomeric DNA 22CTA (5'-duplex AGGGCTAGGGCTAGGGCTAGGG-3') (unknown origin) assessed as stabilization by measuring change in melting temperature at 3 M by circular dichroism (CD) spectroscopy; assay type: nucleic-acid assay
Quadruplex DNA [12] = experiment: Binding affinity to G-quadruplex telomeric DNA 22CTA (5'-duplex AGGGCTAGGGCTAGGGCTAGGG-3') (unknown origin) assessed as stabilization by measuring change in melting temperature at 5 M by circular dichroism (CD) spectroscopy; assay type: nucleic-acid assay
Quadruplex DNA [13] = experiment: Binding affinity to G-quadruplex telomeric DNA 26ceb (5'-duplex AAGGGTGGGTGTAAGTGTGGGTGGGT-3') (unknown origin) assessed as stabilization by measuring change in melting temperature at 0.5 M by circular dichroism (CD) spectroscopy; assay type: nucleic-acid assay
Quadruplex DNA [14] = experiment: Binding affinity to G-quadruplex telomeric DNA 26ceb (5'-duplex AAGGGTGGGTGTAAGTGTGGGTGGGT-3') (unknown origin) assessed as stabilization by measuring change in melting temperature at 1 M by circular dichroism (CD) spectroscopy; assay type: nucleic-acid assay
Quadruplex DNA [15] = experiment: Binding affinity to G-quadruplex telomeric DNA 26ceb (5'-duplex AAGGGTGGGTGTAAGTGTGGGTGGGT-3') (unknown origin) assessed as stabilization by measuring change in melting temperature at 3 M by circular dichroism (CD) spectroscopy; assay type: nucleic-acid assay
Quadruplex DNA [16] = experiment: Binding affinity to G-quadruplex telomeric DNA 26ceb (5'-duplex AAGGGTGGGTGTAAGTGTGGGTGGGT-3') (unknown origin) assessed as stabilization by measuring change in melting temperature at 5 M by circular dichroism (CD) spectroscopy; assay type: nucleic-acid assay
[17] = as §1; assay type: toxicity, cell-based; details: NHDF cells, read-out: Activity

SMILES: C[n+]1cc(NC(=O)c2ccc3ccc4ccc(C(=O)Nc5cc6ccccc6[n+](C)c5)nc4c3n2)cc2ccccc21
ΔTm (Quadruplex DNA [1]): > 30 °C | ΔTm (Quadruplex DNA [3]): > 30 °C | ΔTm (Quadruplex DNA [2]): > 30 °C | ΔTm (Quadruplex DNA [4]): 0.6 °C

SMILES: CCCCCC/N=C/c1ccc2ccc3ccc(/C=N/CCCCCC)nc3c2n1
ΔTm (Quadruplex DNA [1]): 1.1 °C | ΔTm (Quadruplex DNA [2]): 0.7 °C | Activity (NHDF): Non-Toxic

SMILES: NCCNC(=O)c1ccc2ccc3ccc(C(=O)NCCN)nc3c2n1
ΔTm (Quadruplex DNA [1]): 7.2 °C | ΔTm (Quadruplex DNA [3]): 2.9 °C | ΔTm (Quadruplex DNA [2]): 1.8 °C | ΔTm (Quadruplex DNA [5]): 0.5 °C | ΔTm (Quadruplex DNA [6]): 0.3 °C | ΔTm (Quadruplex DNA [7]): 2.5 °C | ΔTm (Quadruplex DNA [8]): 1.4 °C | ΔTm (Quadruplex DNA [9]): 0.4 °C | ΔTm (Quadruplex DNA [10]): 1.3 °C | ΔTm (Quadruplex DNA [11]): 2.9 °C | ΔTm (Quadruplex DNA [12]): 4.3 °C | ΔTm (Quadruplex DNA [13]): 3.4 °C | ΔTm (Quadruplex DNA [14]): 4.6 °C | ΔTm (Quadruplex DNA [15]): 9.7 °C | ΔTm (Quadruplex DNA [16]): 11.7 °C | viability at 10 µM (A549): 24.5% | Activity (NCI-H1299): Active | viability at 48 h, 10 µM [17]: 75.1%

SMILES: O=C1NCCNCCNC(=O)c2ccc3ccc4ccc1nc4c3n2
ΔTm (Quadruplex DNA [1]): 0.4 °C | ΔTm (Quadruplex DNA [2]): 1.7 °C | Activity (A549): Active | Activity (NCI-H1299): Active

SMILES: CC(C)(C)OC(=O)NCC/N=C/c1ccc2ccc3ccc(/C=N/CCNC(=O)OC(C)(C)C)nc3c2n1
ΔTm (Quadruplex DNA [1]): 0.6 °C | ΔTm (Quadruplex DNA [2]): 0.6 °C

SMILES: O=C(N/N=C/c1c(O)ccc2ccccc12)c1ccc2ccc3ccc(C(=O)N/N=C/c4c(O)ccc5ccccc45)nc3c2n1
ΔTm (Quadruplex DNA [1]): 1 °C | ΔTm (Quadruplex DNA [2]): 2.6 °C

SMILES: CC(C)(C)OC(=O)NCCNCc1ccc2ccc3ccc(CNCCNC(=O)OC(C)(C)C)nc3c2n1
ΔTm (Quadruplex DNA [1]): 1.2 °C | ΔTm (Quadruplex DNA [2]): 0.9 °C

SMILES: OCCNCc1ccc2ccc3ccc(CNCCO)nc3c2n1
ΔTm (Quadruplex DNA [1]): 1.2 °C | ΔTm (Quadruplex DNA [2]): 0.4 °C

SMILES: OCC/N=C/c1ccc2ccc3ccc(/C=N/CCO)nc3c2n1
ΔTm (Quadruplex DNA [1]): 1.1 °C | ΔTm (Quadruplex DNA [2]): 0.9 °C

SMILES: O=C1NCCOCCOCCNC(=O)c2ccc3ccc4ccc1nc4c3n2
ΔTm (Quadruplex DNA [1]): 0.5 °C | ΔTm (Quadruplex DNA [2]): 0.4 °C | Activity (A549): Active | Activity (NCI-H1299): Active

Continued, in another order:

ΔTm (Quadruplex DNA [1]): 0.7 °C | ΔTm (Quadruplex DNA [2]): 0.8 °C
SMILES: CC(C)(C)OC(=O)NCCNC(=O)c1ccc2ccc3ccc(C(=O)NCCNC(=O)OC(C)(C)C)nc3c2n1
Activity (A549): Active | Activity (NCI-H1299): Active

ΔTm (Quadruplex DNA [1]): 1.8 °C | ΔTm (Quadruplex DNA [2]): 1.2 °C
SMILES: NNC(=O)c1ccc2ccc3ccc(C(=O)NN)nc3c2n1
Activity (A549): Active | Activity (NCI-H1299): Active

ΔTm (Quadruplex DNA [1]): 0.8 °C | ΔTm (Quadruplex DNA [2]): 0.7 °C
SMILES: COc1ccc(/N=C/c2ccc3ccc4ccc(/C=N/c5ccc(OC)cc5)nc4c3n2)cc1

ΔTm (Quadruplex DNA [1]): 5.3 °C
SMILES: CCCCCCNCc1ccc2ccc3ccc(CNCCCCCC)nc3c2n1
viability at 10 µM (A549): 27.4% | viability at 10 µM (NCI-H1299; read-out: Activity): 42.9% | viability at 48 h, 10 µM [17]: 22.4%

ΔTm (Quadruplex DNA [1]): 12 °C | ΔTm (Quadruplex DNA [3]): 5.2 °C | ΔTm (Quadruplex DNA [2]): 7.8 °C | ΔTm (Quadruplex DNA [5]): 0.7 °C | ΔTm (Quadruplex DNA [6]): 2.1 °C | ΔTm (Quadruplex DNA [7]): 3.4 °C | ΔTm (Quadruplex DNA [8]): 3.5 °C | ΔTm (Quadruplex DNA [9]): 0.6 °C | ΔTm (Quadruplex DNA [10]): 1.3 °C | ΔTm (Quadruplex DNA [11]): 1.9 °C | ΔTm (Quadruplex DNA [12]): 2.1 °C | ΔTm (Quadruplex DNA [13]): 0.9 °C | ΔTm (Quadruplex DNA [14]): 2.1 °C | ΔTm (Quadruplex DNA [15]): 5.4 °C | ΔTm (Quadruplex DNA [16]): 7.6 °C
SMILES: NCCNCc1ccc2ccc3ccc(CNCCN)nc3c2n1.O=C(O)C(F)(F)F.O=C(O)C(F)(F)F.O=C(O)C(F)(F)F.O=C(O)C(F)(F)F
Activity (NHDF): Toxic

ΔTm (Quadruplex DNA [1]): 1.5 °C | ΔTm (Quadruplex DNA [2]): 1.2 °C
SMILES: CC/N=C/c1ccc2ccc3ccc(/C=N/CC)nc3c2n1

ΔTm (Quadruplex DNA [1]): 9.2 °C | ΔTm (Quadruplex DNA [3]): 4.1 °C | ΔTm (Quadruplex DNA [2]): 3.8 °C | ΔTm (Quadruplex DNA [5]): 0.5 °C | ΔTm (Quadruplex DNA [6]): 0.9 °C | ΔTm (Quadruplex DNA [7]): 1.5 °C | ΔTm (Quadruplex DNA [8]): 1.1 °C | ΔTm (Quadruplex DNA [9]): 0.9 °C | ΔTm (Quadruplex DNA [10]): 1.8 °C | ΔTm (Quadruplex DNA [11]): 2.6 °C | ΔTm (Quadruplex DNA [12]): 3.1 °C | ΔTm (Quadruplex DNA [13]): 1.1 °C | ΔTm (Quadruplex DNA [14]): 2.3 °C | ΔTm (Quadruplex DNA [15]): 5.9 °C | ΔTm (Quadruplex DNA [16]): 8.1 °C
SMILES: COc1ccc(NCc2ccc3ccc4ccc(CNc5ccc(OC)cc5)nc4c3n2)cc1
Activity (NHDF): Toxic
